# Reference: ChEMBL document CHEMBL5352410, “Discovery of novel selenium-containing azole derivatives as antifungal agents by exploiting the hydrophobic cleft of CYP51” (Eur J Med Chem, 2022)
# pIC50: −log10 of the molar value.
# What was measured:
# Candida albicans [1] = test: Antifungal activity against Candida albicans by CLSI based broth microdilution method; format: functional
# Nakaseomyces glabratus = test: Antifungal activity against Candida glabrata by CLSI based broth microdilution method; format: functional
# [Candida] zeylanoides = Antifungal activity against Candida zeylanoides by CLSI based broth microdilution method; format: functional; conditions: Dujonia zeylanoides
# Candida albicans [2] = test: Antifungal activity against FCZ-resistant Candida albicans 901 by CLSI based broth microdilution method; format: functional
# Candida albicans [3] = test: Antifungal activity against FCZ-resistant Candida albicans CaR by CLSI based broth microdilution method; format: functional
# Pichia kudriavzevii = test: Antifungal activity against Pichia kudriavzevii by CLSI based broth microdilution method; format: functional
# Aspergillus fumigatus = test: Antifungal activity against Aspergillus fumigatus by CLSI based broth microdilution method; format: functional
# Candida albicans [4] = test: Antifungal activity against FCZ-resistant Candida albicans 904 by CLSI based broth microdilution method; format: functional
# Candida parapsilosis = test: Antifungal activity against Candida parapsilosis by CLSI based broth microdilution method; format: functional; conditions: Lodderomyces parapsilosis
# Candida albicans [5] = test: Antifungal activity against Candida albicans sc5314 by CLSI based broth microdilution method; format: functional
# Cryptococcus neoformans = test: Antifungal activity against Cryptococcus neoformans by CLSI based broth microdilution method; format: functional
# Candida albicans [6] = test: Antifungal activity against FCZ-resistant Candida albicans 17# by CLSI based broth microdilution method; format: functional
# Candida albicans [7] = test: Antifungal activity against FCZ-resistant Candida albicans 632 by CLSI based broth microdilution method; format: functional
# Candida albicans [8] = test: Antibiofilm activity against Candida albicans CPCC400616 assessed as sessile minimum inhibitory concentration measured after 6 hrs by XTT assay; format: functional
# Candida albicans [9] = test: Fungicidal activity against Candida albicans; format: functional
# Candida albicans [10] = test: Fungicidal activity against Candida albicans sc5314; format: functional
# [11] = Cytotoxicity against human PC-3 cells by MTT assay; format: toxicity, cell-based
# Candida albicans [12] = test: Antibiofilm activity against Candida albicans CPCC400616 assessed as sessile minimum inhibitory concentration measured after 1.5 hrs by XTT assay; format: functional
# [13] = Cytotoxicity against human MDA-MB-231 cells by MTT assay; format: toxicity, cell-based
# Candida albicans [14] = test: Fungicidal activity against FCZ-resistant Candida albicans 632; format: functional
# Candida albicans [15] = test: Fungicidal activity against FCZ-resistant Candida albicans 901; format: functional
# Candida albicans [16] = test: Fungicidal activity against FCZ-resistant Candida albicans 17#; format: functional
# Candida albicans [17] = test: Fungicidal activity against FCZ-resistant Candida albicans CaR; format: functional
# Candida albicans [18] = test: Antibiofilm activity against Candida albicans SC5314 assessed as sessile minimum inhibitory concentration measured after 1.5 hrs by XTT assay; format: functional
# [19] = Cytotoxicity against human HL-60 cells by MTT assay; format: toxicity, cell-based
# Candida albicans [20] = test: Antibiofilm activity against Candida albicans SC5314 assessed as sessile minimum inhibitory concentration measured after 3 hrs by XTT assay; format: functional
# Candida albicans [21] = test: Antibiofilm activity against Candida albicans CPCC400616 assessed as sessile minimum inhibitory concentration measured after 3 hrs by XTT assay; format: functional
# Candida albicans [22] = test: Antibiofilm activity against Candida albicans SC5314 assessed as sessile minimum inhibitory concentration measured after 24 hrs by XTT assay; format: functional
# Candida albicans [23] = test: Antibiofilm activity against Candida albicans SC5314 assessed as sessile minimum inhibitory concentration measured after 6 hrs by XTT assay; format: functional
# Candida albicans [24] = test: Antibiofilm activity against Candida albicans CPCC400616 assessed as sessile minimum inhibitory concentration measured after 24 hrs by XTT assay; format: functional
# Candida albicans [25] = test: Fungicidal activity against FCZ-resistant Candida albicans 904; format: functional
SMILES,MIC (Candida albicans [1]) [µg/mL],MIC (Nakaseomyces glabratus) [µg/mL],MIC ([Candida] zeylanoides) [µg/mL],MIC (Candida albicans [2]) [µg/mL],MIC (Candida albicans [3]) [µg/mL],MIC (Pichia kudriavzevii) [µg/mL],MIC (Aspergillus fumigatus) [µg/mL],MIC (Candida albicans [4]) [µg/mL],MIC (Candida parapsilosis) [µg/mL],MIC (Candida albicans [5]) [µg/mL],MIC (Cryptococcus neoformans) [µg/mL],MIC (Candida albicans [6]) [µg/mL],MIC (Candida albicans [7]) [µg/mL],MFC (Candida albicans [9]) [µg/mL],MFC (Candida albicans [10]) [µg/mL],MFC (Candida albicans [14]) [µg/mL],MFC (Candida albicans [15]) [µg/mL],MFC (Candida albicans [16]) [µg/mL],MFC (Candida albicans [17]) [µg/mL],MFC (Candida albicans [25]) [µg/mL],further results
Clc1ccc(C(Cn2cncn2)[Se]C(Cn2cncn2)c2ccc(Cl)cc2Cl)c(Cl)c1 (stereo unspecified),64,32,0.5,> 64,32,64,> 64,> 64,64,32,4,8,64,,,,,,,,
Clc1ccc(C(Cn2cncn2)[Se]C(Cn2cncn2)c2ccc(Cl)cc2)cc1 (stereo unspecified),> 64,> 64,16,16,32,> 64,> 64,64,> 64,32,4,8,> 64,,,,,,,,
Clc1ccc(C(Cn2cnnn2)[Se]C(Cn2cnnn2)c2ccc(Cl)cc2Cl)c(Cl)c1 (stereo unspecified),> 64,> 64,> 64,> 64,> 64,> 64,> 64,> 64,> 64,> 64,> 64,> 64,> 64,,,,,,,,
Fc1ccc(C(Cn2cncn2)[Se]C(Cn2cncn2)c2ccc(F)cc2)cc1 (stereo unspecified),> 64,64,1,> 64,64,> 64,> 64,64,> 64,32,> 64,8,> 64,,,,,,,,
Cc1ccc(C(Cn2ccnc2)[Se]C(Cn2ccnc2)c2ccc(C)cc2)cc1 (stereo unspecified),4,16,2,4,2,16,> 64,4,4,4,32,0.5,4,64,16,8,8,> 64,> 64,8,MIC50 (Candida albicans [8]): 2 µg/mL; MIC80 (Candida albicans [8]): 8 µg/mL; pIC50 [11]: 5.95; MIC50 (Candida albicans [12]): 1 µg/mL; MIC80 (Candida albicans [12]): 4 µg/mL; pIC50 [13]: 5.38; MIC50 (Candida albicans [18]): 1 µg/mL; MIC80 (Candida albicans [18]): 4 µg/mL; pIC50 [19]: 5.09; MIC50 (Candida albicans [20]): 1 µg/mL; MIC80 (Candida albicans [20]): 4 µg/mL; MIC50 (Candida albicans [21]): 2 µg/mL; MIC80 (Candida albicans [21]): 8 µg/mL; MIC50 (Candida albicans [22]): 2 µg/mL; MIC80 (Candida albicans [22]): 4 µg/mL; MIC50 (Candida albicans [23]): 1 µg/mL; MIC80 (Candida albicans [23]): 4 µg/mL; MIC50 (Candida albicans [24]): 4 µg/mL; MIC80 (Candida albicans [24]): 16 µg/mL
c1ccc(C(Cn2ccnc2)[Se][Se]C(Cn2ccnc2)c2ccccc2)cc1 (stereo unspecified),,,,4,2,,,8,,,,> 64,8,64,16,16,8,> 64,> 64,8,
Fc1ccc(C(Cn2ccnn2)[Se]C(Cn2ccnn2)c2ccc(F)cc2)cc1 (stereo unspecified),> 64,8,64,> 64,> 64,64,> 64,> 64,> 64,> 64,> 64,> 64,> 64,,,,,,,,
Clc1ccc(C(Cn2ccnn2)[Se]C(Cn2ccnn2)c2ccc(Cl)cc2)cc1 (stereo unspecified),> 64,8,64,> 64,> 64,32,> 64,> 64,> 64,> 64,> 64,> 64,> 64,,,,,,,,
Fc1ccc(C(Cn2ccnc2)[Se][Se]C(Cn2ccnc2)c2ccc(F)cc2)cc1 (stereo unspecified),,,,16,4,,,64,,,,32,64,> 64,> 64,> 64,32,> 64,> 64,64,
